Measurements published in patent US20190276871A1, “Antimicrobial Cartridges and Processes for Antimicrobial Susceptibility Testing” (SeLux Diagnostics, Inc., priority 2017, published 2019).
In brackets after ≈: the same amount, converted by molar mass. Like-named read-outs stand apart in the source and are kept apart here.

Experiments:
patient sample microbes [1] = assay: Standard 96-well AST assay plate, antimicrobial panel 1; type: cell-based
Description: (§1) Shown in Table 5 and Table 6, MIC results for antimicrobial panels 1 and 2 respectively using a master cartridge format and a 384 well patient cartridge (column 3) agrees reliably with that run by standard 96 well AST assay plate (right hand column).

[2] = MIC, antimicrobial panel 1; cited from earlier work
patient sample microbes [3] = assay: AST on 384-well patient cartridge panel made from Master Plate, antimicrobial panel 1; type: cell-based; conditions: master cartridge format
Description: (§2) An assay setup comprises preparation of patient (target) cartridge by dispensing antimicrobials were from the master cartridge or intermediate serial dilution cartridges into one or more 384 reservoir patient cartridge, each antimicrobial in about 7 serial dilutions in triplicate, and covering the dynamic range of each antimicrobial that is known to be effective and therefore should be reported. The dilution range included the expected minimum inhibitory concentration (MIC) for each antimicrobial. But most importantly, dilution ranges, that is, antimicrobial concentrations beyond the range known to be effective are included in the patient cartridge as per the present invention.
(§3) The remaining reservoirs of the 384 well patient cartridge are utilized for setting up test controls: a no-antimicrobial control (negative control) was included for each antimicrobial compound; and a positive control was included for each antimicrobial set, where a microorganism that is not susceptible to the antimicrobial was added to the well. Each control set was also dispensed at least in duplicate per 384 well cartridge. Additional test controls may be included as deemed necessary by one of skill in the art. Equal amount of a patient sample was dispensed to each of the wells in the cartridge, except in the wells designated for no-sample control, if included. The patient cartridge was ready for determination of susceptibility of microbes from the patient sample to the twelve antimicrobials at the range of concentrations applied, simultaneously. Multiple such plates can be set up in parallel for testing samples from multiple patients, each patient sample per plate. An AST assay was performed on the prepared patient cartridges.
as §1

patient sample microbes [4] = assay: Standard 96-well AST assay plate, antimicrobial panel 2; type: cell-based; set-up: unit not given here
Description: as §1

patient sample microbes [5] = assay: AST on 384-well patient cartridge panel made from Master Plate, antimicrobial panel 2; type: cell-based; set-up: unit not given here; conditions: master cartridge format
Description: as §2, §3, §1

[6] = MIC, antimicrobial panel 2; cited from earlier work
[7] = test system: clinical isolate of S aureus; assay: Broth microdilution reference method; type: cell-based; conditions: read-out: MICs obtained from the broth microdilution reference method
Procedure: The antibiotics shown are vancomycin, daptomycin, ceftaroline and levofloxacin, of which the MICs obtained from the broth microdilution reference method for this strain were 0.5, 0.25, 0.12, and 0.25 μg/ml, respectively. A clinical isolate of S aureus was used. Data represents the TRF signal in RFUs. Graphs in the top row contain data from 384-well plates. Graphs in the bottom row contain data from 96-well plates.

Row | Molecule | MICs obtained from 96-well Antibiotic Panel (patient sample microbes [1]) | Quality Control Range [2] | MICs obtained from panel made from Master Plate (patient sample microbes [3]) | MICs obtained from 96-well Antibiotic Panel (patient sample microbes [4]) | MICs obtained from panel made from Master Plate (patient sample microbes [5]) | Quality Control Range [6] | MIC ([7]; clinical isolate of S aureus) [µg/mL] | MIC [7] [µg/mL]
1 | NCC[C@H](O)C(=O)N[C@@H]1C[C@H](N)[C@@H](O[C@H]2O[C@H](CN)[C@@H](O)[C@H](O)[C@H]2O)[C@H](O)[C@H]1O[C@H]1O[C@H](CO)[C@@H](O)[C@H](N)[C@H]1O [Amikacin] | 4 | 0.5-4 | 4 |  |  |  |  | 
2 | CC1(C)S[C@@H]2[C@H](NC(=O)[C@H](N)c3ccccc3)C(=O)N2[C@H]1C(=O)O [Ampicillin] | 8 | 2-8 | 4 | 1 | 1 | 0.5-2 |  | 
3 | CO/N=C(\C(=O)N[C@@H]1C(=O)N2C(C(=O)[O-])=C(C[N+]3(C)CCCC3)CS[C@H]12)c1csc(N)n1 [Cefepime] | ≤0.03 | 0.015-0.12 | ≤0.25 |  |  |  |  | 
4 | CCO/N=C(\C(=O)N[C@@H]1C(=O)N2C(C(=O)[O-])=C(Sc3nc(-c4cc[n+](C)cc4)cs3)CS[C@H]12)c1nsc(N)n1 [Ceftaroline] |  |  |  | 0.25 | 0.5 |  | 0.12 (≈ 0.198 µM) | 
5 | CC(C)(O/N=C(\C(=O)N[C@@H]1C(=O)N2C(C(=O)[O-])=C(C[n+]3ccccc3)CS[C@H]12)c1csc(N)n1)C(=O)O [Ceftazidime] | 0.25 | 0.06-0.5 | <1 | 8 | 4 | 4-16 |  | 
6 | CO/N=C(\C(=O)N[C@@H]1C(=O)N2C(C(=O)O)=C(CSc3nc(=O)c(=O)[nH]n3C)CS[C@H]12)c1csc(N)n1 [Ceftriaxone] | ≤0.12 | 0.03-0.12 | ≤0.125 | 4 | 2 | 1-8 |  | 
7 | C[C@H]1COc2c(N3CCN(C)CC3)c(F)cc3c(=O)c(C(=O)O)cn1c23 [Levofloxacin] | ≤0.06 |  | ≤0.25 | 0.25 | ≤0.25 |  | 0.25 (≈ 0.692 µM) | 
8 | CC(=O)NC[C@H]1CN(c2ccc(N3CCOCC3)c(F)c2)C(=O)O1 [Linezolid] |  |  |  | 2 | 2 | 1-4 |  | 
9 | Cc1onc(-c2ccccc2)c1C(=O)N[C@@H]1C(=O)N2[C@@H]1SC(C)(C)[C@@H]2C(=O)O [Oxacillin] |  |  |  | 0.5 | 0.5 | 0.12-0.5 |  | 
10 | CO[C@H]1/C=C/O[C@@]2(C)Oc3c(C)c(O)c4c(O)c(c(/C=N/N5CCN(C)CC5)c(O)c4c3C2=O)NC(=O)/C(C)=C\C=C\[C@H](C)[C@H](O)[C@@H](C)[C@@H](O)[C@@H](C)[C@H](OC(C)=O)[C@@H]1C [Rifampin] |  |  |  | 0.004 | ≤0.25 | 0.004-0.015 |  | 
11 | Cn1nnc(-c2ccc(-c3ccc(N4C[C@H](CO)OC4=O)cc3F)cn2)n1 [Tedizolid] |  |  |  | 0.5 | 0.25 | 0.25-1 |  | 
12 | NC[C@H]1O[C@H](O[C@H]2[C@H](O)[C@@H](O[C@H]3O[C@H](CO)[C@@H](O)[C@H](N)[C@H]3O)[C@H](N)C[C@@H]2N)[C@H](N)C[C@@H]1O [Tobramycin] | 1 | 0.25-1 | 0.5 |  |  |  |  | 
13 | CCCCCCCCCC(=O)N[C@@H](Cc1c[nH]c2ccccc12)C(=O)N[C@H](CC(N)=O)C(=O)N[C@@H](CC(=O)O)C(=O)N[C@@H]1C(=O)NCC(=O)N[C@@H](CCCN)C(=O)N[C@@H](CC(=O)O)C(=O)N[C@H](C)C(=O)N[C@@H](CC(=O)O)C(=O)NCC(=O)N[C@H](CO)C(=O)N[C@@H]([C@H](C)CC(=O)O)C(=O)N[C@@H](CC(=O)c2ccccc2N)C(=O)O[C@@H]1C [daptomycin] |  |  |  |  |  |  | 0.25 (≈ 0.154 µM) | 
14 | CN[C@H](CC(C)C)C(=O)N[C@H]1C(=O)N[C@@H](CC(N)=O)C(=O)N[C@H]2C(=O)N[C@H]3C(=O)N[C@H](C(=O)N[C@H](C(=O)O)c4cc(O)cc(O)c4-c4cc3ccc4O)[C@H](O)c3ccc(c(Cl)c3)Oc3cc2cc(c3O[C@@H]2O[C@H](CO)[C@@H](O)[C@H](O)[C@H]2O[C@H]2C[C@](C)(N)[C@H](O)[C@H](C)O2)Oc2ccc(cc2Cl)[C@H]1O [vancomycin] |  |  |  |  |  |  |  | 0.5 (≈ 0.345 µM)
15 | Ampicillin-Sulbactam | 8 µg/mL | 2-8 | 8 µg/mL |  |  |  |  | 
16 | Piperacillin-tazobactam | 4 µg/mL | 1-4 | ≤ 1 µg/mL |  |  |  |  | 
